Reference: ChEMBL document CHEMBL1201862, “PubChem BioAssay data set” (2004)
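Briefly, cells in 96-well plates were exposed to five compound concentrations for 48 h, and endpoints were estimated by linear interpolation. GI50 is the concentration that inhibits growth by half.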 Activity calls are given as the source filed them. Cut-off read from the data, not from the text of the source: active = GI50 up to about 1.1 µM and inactive = higher.

Tests used:
Experiment in all cases: inhibition of tumour cell growth, NCI panel, 48 h
K562 = tested on: K562
MDA-MB-231 = tested on: MDA-MB-231
A498 = tested on: A498
TK-10 = tested on: TK-10
HCC 2998 = tested on: HCC 2998
MDA-MB-435 = tested on: MDA-MB-435
T47D = tested on: T47D
SF-539 = tested on: SF-539
HOP-18 = tested on: HOP-18
MDA-N = tested on: MDA-N
NCI-H23 = tested on: NCI-H23
OVCAR-3 = tested on: OVCAR-3
PC-3 = tested on: PC-3
SF-268 = tested on: SF-268
RPMI-8226 = tested on: RPMI-8226
LXFL 529 = tested on: LXFL 529
IGROV-1 = tested on: IGROV-1
HCT-15 = tested on: HCT-15
RXF 393 = tested on: RXF 393
LOX IMVI = tested on: LOX IMVI
COLO 205 = tested on: COLO 205
HT-29 = tested on: HT-29
786-0 = tested on: 786-0
OVCAR-8 = tested on: OVCAR-8
KM12 = tested on: KM12
SR = tested on: SR
DMS-273 = tested on: DMS-273
MOLT-4 = tested on: MOLT-4
M19-MEL = tested on: M19-MEL
SN12C = tested on: SN12C
BT-549 = tested on: BT-549
ACHN = tested on: ACHN
UO-31 = tested on: UO-31
SNB-75 = tested on: SNB-75
RXF 631 = tested on: RXF 631
Malme-3M = tested on: Malme-3M
SK-MEL-28 = tested on: SK-MEL-28
MCF7 = tested on: MCF7
SNB-19 = tested on: SNB-19
HCT-116 = tested on: HCT-116
EKVX = tested on: EKVX
CCRF-CEM = tested on: CCRF-CEM
UACC-62 = tested on: UACC-62
OVCAR-4 = tested on: OVCAR-4
SK-MEL-2 = tested on: SK-MEL-2
DLD-1 = tested on: DLD-1
SK-MEL-5 = tested on: SK-MEL-5
NCI-H226 = tested on: NCI-H226
DU-145 = tested on: DU-145
UACC-257 = tested on: UACC-257
NCI-H460 = tested on: NCI-H460
CAKI-1 = tested on: CAKI-1
KM-20L2 = tested on: KM-20L2
SK-OV-3 = tested on: SK-OV-3
M14 = tested on: M14
DMS-114 = tested on: DMS-114
OVCAR-5 = tested on: OVCAR-5
NCI-H522 = tested on: NCI-H522
HL-60 = tested on: HL-60
NCI/ADR-RES = tested on: NCI/ADR-RES
U-251 = tested on: U-251
HOP-92 = tested on: HOP-92
SW-620 = tested on: SW-620
Hs-578T = tested on: Hs-578T
HOP-62 = tested on: HOP-62
SF-295 = tested on: SF-295
A549 = tested on: A549
XF498 = tested on: XF498
SNB-78 = tested on: SNB-78

Which results are given for `CC(=O)Oc1ccc(C(c2ccc(OC(C)=O)cc2)c2ccccn2)cc1` [BISACODYL]?
GI50 (K562): 59.4 µM (inactive); GI50 (MDA-MB-231): 54.7 µM (inactive); GI50 (A498): 59 µM (inactive); GI50 (TK-10): 81.3 µM (inactive); GI50 (HCC 2998): 2.9 µM (inactive); GI50 (MDA-MB-435): 76.4 µM (inactive); GI50 (T47D): 0.228 µM (active); GI50 (SF-539): > 91.2 µM (inactive); GI50 (HOP-18): > 47 µM (inactive); GI50 (MDA-N): > 87.9 µM (inactive); GI50 (NCI-H23): 3.83 µM (inactive); GI50 (OVCAR-3): 0.219 µM (active); GI50 (PC-3): 26.5 µM (inactive); GI50 (SF-268): > 100 µM (inactive); GI50 (RPMI-8226): 65.3 µM (inactive); GI50 (LXFL 529): 28.8 µM (inactive); GI50 (IGROV-1): 71.6 µM (inactive); GI50 (HCT-15): 39.7 µM; GI50 (RXF 393): 13.8 µM (inactive); GI50 (LOX IMVI): 29.2 µM (inactive); GI50 (COLO 205): 0.406 µM (active); GI50 (HT-29): > 93.5 µM (inactive); GI50 (786-0): > 91.6 µM (inactive); GI50 (OVCAR-8): 1.4 µM (inactive); GI50 (KM12): 70.3 µM (inactive); GI50 (SR): 64.4 µM (inactive); GI50 (DMS-273): > 100 µM (inactive); GI50 (MOLT-4): 57 µM (inactive); GI50 (M19-MEL): 97.5 µM (inactive); GI50 (SN12C): 7.16 µM (inactive); GI50 (BT-549): 0.0843 µM (active); GI50 (ACHN): 78.7 µM (inactive); GI50 (UO-31): 69.7 µM (inactive); GI50 (SNB-75): 28.5 µM (inactive); GI50 (RXF 631): > 100 µM (inactive); GI50 (Malme-3M): 78.5 µM (inactive); GI50 (SK-MEL-28): > 100 µM (inactive); GI50 (MCF7): 0.378 µM (active); GI50 (SNB-19): > 100 µM (inactive); GI50 (HCT-116): 70.6 µM (inactive); GI50 (EKVX): 18.8 µM (inactive); GI50 (CCRF-CEM): 71.1 µM (inactive); GI50 (UACC-62): 47.5 µM (inactive); GI50 (OVCAR-4): 0.146 µM (active); GI50 (SK-MEL-2): 98.6 µM (inactive); GI50 (DLD-1): 7.11 µM (inactive); GI50 (SK-MEL-5): 68.4 µM (inactive); GI50 (NCI-H226): 87.3 µM (inactive); GI50 (DU-145): > 84.3 µM (inactive); GI50 (UACC-257): > 87.3 µM (inactive); GI50 (NCI-H460): 99.1 µM (inactive); GI50 (CAKI-1): > 100 µM (inactive); GI50 (KM-20L2): 54.2 µM (inactive); GI50 (SK-OV-3): 59.4 µM (inactive); GI50 (M14): > 93.5 µM (inactive); GI50 (DMS-114): 0.57 µM (active); GI50 (OVCAR-5): 22.1 µM (inactive); GI50 (NCI-H522): 76.7 µM (inactive); GI50 (HL-60): 36.2 µM (inactive); GI50 (NCI/ADR-RES): 1.32 µM (inactive); GI50 (U-251): > 97.5 µM (inactive); GI50 (HOP-92): 36.8 µM (inactive); GI50 (SW-620): > 100 µM (inactive); GI50 (Hs-578T): 0.232 µM (active); GI50 (HOP-62): > 92.7 µM (inactive); GI50 (SF-295): 64.3 µM (inactive); GI50 (A549): 91.4 µM (inactive); GI50 (XF498): 40.1 µM (inactive)

For `OCCCOC(c1ccccc1)(c1ccccc1)c1ccccc1`, which GI50 (K562) is on record?
Its GI50 is > 100 µM (inactive).

What about the GI50 (TK-10) of the same molecule?
Its GI50 is > 100 µM (inactive).

And the GI50 (HCC 2998)?
Its GI50 is > 100 µM (inactive).

And the GI50 (SF-539)?
Its GI50 is > 100 µM (inactive).

What about the GI50 (NCI-H23) of the same molecule?
The GI50 was 75.7 µM (inactive).

And the GI50 (OVCAR-3)?
Its GI50 is > 100 µM (inactive).

What about the GI50 (SF-268) of the same molecule?
Its GI50 is > 100 µM (inactive).

And the GI50 (RPMI-8226)?
The GI50 was > 100 µM (inactive).

And the GI50 (LXFL 529)?
The GI50 was > 100 µM (inactive).

What about the GI50 (IGROV-1) of the same molecule?
The GI50 was > 100 µM (inactive).

What about the GI50 (HCT-15) of the same molecule?
Its GI50 is greater than 100 µM.

And the GI50 (RXF 393)?
Its GI50 is < 0.01 µM (active).

And the GI50 (LOX IMVI)?
The GI50 was 35.6 µM (inactive).

What about the GI50 (COLO 205) of the same molecule?
The GI50 was > 100 µM (inactive).

And the GI50 (HT-29)?
Its GI50 is 24.3 µM (inactive).

And the GI50 (786-0)?
The GI50 was > 100 µM (inactive).

And the GI50 (OVCAR-8)?
The GI50 was > 100 µM (inactive).

What about the GI50 (KM12) of the same molecule?
Its GI50 is > 100 µM (inactive).

What about the GI50 (SR) of the same molecule?
Its GI50 is > 100 µM (inactive).

What about the GI50 (DMS-273) of the same molecule?
The GI50 was > 100 µM (inactive).

What about the GI50 (MOLT-4) of the same molecule?
Its GI50 is 93.3 µM (inactive).

And the GI50 (M19-MEL)?
The GI50 was > 100 µM (inactive).

What about the GI50 (SN12C) of the same molecule?
Its GI50 is > 100 µM (inactive).

And the GI50 (ACHN)?
The GI50 was > 100 µM (inactive).

And the GI50 (UO-31)?
The GI50 was 47 µM (inactive).

And the GI50 (SNB-75)?
Its GI50 is 20.1 µM (inactive).

What about the GI50 (RXF 631) of the same molecule?
Its GI50 is > 100 µM (inactive).

And the GI50 (Malme-3M)?
Its GI50 is > 100 µM (inactive).

What about the GI50 (SK-MEL-28) of the same molecule?
The GI50 was > 100 µM (inactive).

What about the GI50 (HCT-116) of the same molecule?
The GI50 was 50.7 µM (inactive).

And the GI50 (CCRF-CEM)?
The GI50 was > 100 µM (inactive).

What about the GI50 (UACC-62) of the same molecule?
The GI50 was 88.5 µM (inactive).

And the GI50 (OVCAR-4)?
The GI50 was > 100 µM (inactive).

What about the GI50 (DLD-1) of the same molecule?
The GI50 was 60.1 µM (inactive).

What about the GI50 (SK-MEL-5) of the same molecule?
The GI50 was > 100 µM (inactive).

What about the GI50 (UACC-257) of the same molecule?
Its GI50 is > 100 µM (inactive).

And the GI50 (NCI-H460)?
Its GI50 is > 100 µM (inactive).

What about the GI50 (CAKI-1) of the same molecule?
The GI50 was > 100 µM (inactive).

And the GI50 (KM-20L2)?
Its GI50 is > 100 µM (inactive).

And the GI50 (SK-OV-3)?
Its GI50 is > 100 µM (inactive).

What about the GI50 (M14) of the same molecule?
Its GI50 is > 100 µM (inactive).

And the GI50 (DMS-114)?
The GI50 was > 100 µM (inactive).

And the GI50 (OVCAR-5)?
Its GI50 is > 100 µM (inactive).

And the GI50 (NCI-H522)?
Its GI50 is > 100 µM (inactive).

And the GI50 (HL-60)?
Its GI50 is > 100 µM (inactive).

And the GI50 (U-251)?
Its GI50 is 51.5 µM (inactive).

And the GI50 (HOP-92)?
The GI50 was 20.6 µM (inactive).

And the GI50 (SW-620)?
Its GI50 is > 100 µM (inactive).

What about the GI50 (HOP-62) of the same molecule?
Its GI50 is 39.7 µM (inactive).

And the GI50 (SF-295)?
The GI50 was 82.6 µM (inactive).

And the GI50 (A549)?
Its GI50 is > 100 µM (inactive).

What about the GI50 (XF498) of the same molecule?
Its GI50 is > 100 µM (inactive).

And the GI50 (SNB-78)?
Its GI50 is 38.9 µM (inactive).
